Source: ChEMBL document CHEMBL1201862, “PubChem BioAssay data set” (2004)
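How tested: cells in 96-well plates exposed to compound for 48 hours at five concentrations. GI50 marks 50% less growth.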 Active and inactive are the calls of the source. No stated cut-off is given here; in the data, active = GI50 up to about 1.1 µM and inactive = higher.

How the values were obtained:
Assay in all cases: NCI tumour cell line growth inhibition, 48 h
A498 = tested on: A498
A549 = tested on: A549
CAKI-1 = tested on: CAKI-1
COLO 205 = tested on: COLO 205
HOP-62 = tested on: HOP-62
KM12 = tested on: KM12
OVCAR-4 = tested on: OVCAR-4
RXF 393 = tested on: RXF 393
SK-MEL-5 = tested on: SK-MEL-5
SK-OV-3 = tested on: SK-OV-3
SN12C = tested on: SN12C
SW-620 = tested on: SW-620
U-251 = tested on: U-251
UACC-62 = tested on: UACC-62

| SMILES | GI50 (A498) | GI50 (A549) | GI50 (CAKI-1) | GI50 (COLO 205) | GI50 (HOP-62) | GI50 (KM12) | GI50 (OVCAR-4) | GI50 (RXF 393) | GI50 (SK-MEL-5) | GI50 (SK-OV-3) | GI50 (SN12C) | GI50 (SW-620) | GI50 (U-251) | GI50 (UACC-62) |
| --- | --- | --- | --- | --- | --- | --- | --- | --- | --- | --- | --- | --- | --- | --- |
| CC1(n2nc(-c3ccccc3)n(-c3ccccc3)c2=O)CSC1 | 38.2 µM (inactive) | > 100 µM (inactive) | > 100 µM (inactive) | > 100 µM (inactive) | > 100 µM (inactive) | > 100 µM (inactive) | > 100 µM (inactive) | > 100 µM (inactive) | > 100 µM (inactive) | > 100 µM (inactive) | > 100 µM (inactive) | > 100 µM (inactive) | > 100 µM (inactive) | > 100 µM (inactive) |
| Clc1ccc2c(Cl)nc(-c3ccccc3)nc2c1 | 37.4 µM (inactive) | – | 23.6 µM (inactive) | 41.2 µM (inactive) | 53.2 µM (inactive) | 36.8 µM (inactive) | – | 23.4 µM (inactive) | 16.5 µM (inactive) | 14.1 µM (inactive) | 21.8 µM (inactive) | 33.9 µM (inactive) | 11.8 µM (inactive) | 19.4 µM (inactive) |
| CS/C(=N\c1ccccc1)N(c1ccccc1)c1nc(=[N+](C)C)ss1.[O-][Cl+3]([O-])([O-])[O-] | 12.4 µM (inactive) | 14.5 µM (inactive) | 3.48 µM (inactive) | 0.0647 µM (active) | 13.9 µM (inactive) | 2.65 µM (inactive) | 9.46 µM (inactive) | 4.13 µM (inactive) | 1.41 µM (inactive) | 23.9 µM (inactive) | 3.2 µM (inactive) | 1.36 µM (inactive) | 2.34 µM (inactive) | 0.0441 µM (active) |
| O=Cc1cn(C(=O)c2ccccc2)c2ccccc12 | > 100 µM (inactive) | > 100 µM (inactive) | 82.8 µM (inactive) | – | > 100 µM (inactive) | 64 µM (inactive) | > 100 µM (inactive) | 53.5 µM (inactive) | 45 µM (inactive) | > 100 µM (inactive) | – | > 100 µM (inactive) | > 100 µM (inactive) | > 100 µM (inactive) |
| CCOC(=O)[C@H]1Nc2ccc(Cl)cc2[C@H]2OCC[C@@H]12 | > 100 µM (inactive) | > 100 µM (inactive) | > 100 µM (inactive) | > 100 µM (inactive) | > 100 µM (inactive) | > 100 µM (inactive) | > 100 µM (inactive) | > 100 µM (inactive) | > 100 µM (inactive) | > 100 µM (inactive) | > 100 µM (inactive) | > 100 µM (inactive) | > 100 µM (inactive) | > 100 µM (inactive) |
| COc1cc(OC)c(C#N)c(OC)c1C | > 100 µM (inactive) | > 100 µM (inactive) | > 100 µM (inactive) | – | > 100 µM (inactive) | > 100 µM (inactive) | > 100 µM (inactive) | > 100 µM (inactive) | > 100 µM (inactive) | > 100 µM (inactive) | > 100 µM (inactive) | > 100 µM (inactive) | > 100 µM (inactive) | > 100 µM (inactive) |
| O=C(c1ccccc1)[C@H]1Nc2ccc(Cl)cc2[C@H]2OCCC[C@@H]12 | – | – | 23 µM (inactive) | 21.5 µM (inactive) | 18 µM (inactive) | 19 µM (inactive) | 20.7 µM (inactive) | 17.3 µM (inactive) | – | – | 19.7 µM (inactive) | 17.3 µM (inactive) | 17.3 µM (inactive) | 17.8 µM (inactive) |
| CN(C)CCC(/C=C/c1ccccc1)=N\Nc1c(F)c(F)c(F)c(F)c1F | 62.2 µM (inactive) | 72.6 µM (inactive) | – | > 100 µM (inactive) | > 100 µM (inactive) | > 100 µM (inactive) | > 100 µM (inactive) | 11.3 µM (inactive) | 15.5 µM (inactive) | > 100 µM (inactive) | 64.6 µM (inactive) | > 100 µM (inactive) | > 100 µM (inactive) | 49.2 µM (inactive) |
| O=P(Nc1cccc(Cl)c1)(Oc1ccccc1)N(CCCl)CCCl (centres undefined) | 14.4 µM (inactive) | 13.2 µM (inactive) | 13.9 µM (inactive) | 15.9 µM (inactive) | 16.6 µM (inactive) | 14.8 µM (inactive) | 11.7 µM (inactive) | – | 12.4 µM (inactive) | > 100 µM (inactive) | 14.9 µM (inactive) | 16.7 µM (inactive) | 14.6 µM (inactive) | 11.6 µM (inactive) |
| COC(=O)C(Cc1nc2ccccc2nc1O)C(=O)C(=O)Nc1ccc(F)cc1 (centres undefined) | – | > 100 µM (inactive) | > 100 µM (inactive) | 37.9 µM (inactive) | > 100 µM (inactive) | 41 µM (inactive) | 77.3 µM (inactive) | 23.4 µM (inactive) | > 100 µM (inactive) | > 100 µM (inactive) | 40.9 µM (inactive) | 21.9 µM (inactive) | – | 24.2 µM (inactive) |
| COc1ccc(/C=C/C(=N\NC(=O)c2ccccc2)c2sc(Nc3ccc([N+](=O)[O-])cc3)nc2C)cc1OC | – | 10.6 µM (inactive) | 17.7 µM (inactive) | 21.3 µM (inactive) | 18.2 µM (inactive) | 7.73 µM (inactive) | 11.6 µM (inactive) | 12.9 µM (inactive) | – | 45.8 µM (inactive) | 13.9 µM (inactive) | 16 µM (inactive) | 5.3 µM (inactive) | 2.75 µM (inactive) |
